Results from patent publication US12214092B2, “Systems and methods for treating biological fluids” (Cerus Corporation, priority 2017, dated 2025).

Columns and labels:
[1] = Amotosalen concentration in platelets in 100% plasma (75 μM/340 nm or 150 μM/INT-100), HPLC; type: physicochemical
[2] = Amotosalen concentration pre- and post-UV in platelets (plasma or PAS/plasma), 340 nm ~7.2 J/cm^2, HPLC
Method: A study was performed to evaluate the photoconversion of amotosalen in platelets in 10000 plasma, as well as function of the platelets over 7 days (Day 3, Day 7) following photochemical treatment using the 340 nm device of the present disclosure. Multiple donor platelet units in 10000 plasma (5 units, ˜278-391 mL) were pooled and split into 5 units of ˜285 mL each, to be used as an untreated control, or treated with amotosalen at different concentrations, with ultraviolet A illumination using the 340 nm device. Amotosalen was added to a concentration of 30, 60, 90 or 110 μM, then pre-illumination (pre-UV) samples were removed for analysis, and the remainder of the units subjected to illumination at ˜7.2 J/cm^2. Post-illumination (Post-UV) samples were then removed for post-treatment analysis.

In the case of `Cc1oc2c(C)c3oc(=O)cc(C)c3cc2c1COCCN` [S-59, 3-(2-aminoethoxymethyl)-2,5,9-trimethylfuro[3,2-g]chromen-7-one], the “% Residual S-59” value ([1]; 340/~6.4 (75 μM input)) is reported as 2.5%, the S-59 concentration ([1]; 340/~6.4 (75 μM input), Post-UVA) is reported as 2.4 µM and the S-59 concentration ([1]; 340/~6.4 (75 μM input), Pre-UVA) is reported as 93.3 µM. For the same molecule, the “% Residual S-59” value ([1]; 340/~7.2 (75 μM input)) was 2.0%, the S-59 concentration ([1]; 340/~7.2 (75 μM input), Post-UVA) was 1.9 µM and the S-59 concentration ([1]; 340/~7.2 (75 μM input), Pre-UVA) was 94.0 µM. The S-59 concentration ([1]; INT-100 (150 μM input), Post-CAD) was 0.2 µM, the S-59 concentration ([1]; INT-100 (150 μM input), Pre-UVA) was 173.2 µM and the “% Residual S-59” value ([1]; INT-100 ~3.6 J/cm^2 (150 μM input)) was 40.1%. For the same molecule, the S-59 concentration ([1]; INT-100 ~3.6 J/cm^2 (150 μM input), Post-UVA) was 69.4 µM, the Amotosalen concentration ([2]; 30 μM, PAS/Plasma, Post-UV) was 0.3 µM and the Amotosalen concentration ([2]; 30 μM, PAS/Plasma, Pre-UV) was 30.5 µM. It also gave an Amotosalen concentration ([2]; 30 μM, Plasma, Post-UV) of 1.1 µM, an Amotosalen concentration ([2]; 30 μM, Plasma, Pre-UV) of 32.7 µM and an Amotosalen concentration ([2]; 60 μM, PAS/Plasma, Post-UV) of 0.7 µM. The Amotosalen concentration ([2]; 60 μM, PAS/Plasma, Pre-UV) was 61.2 µM, the Amotosalen concentration ([2]; 60 μM, Plasma, Post-UV) was 2.3 µM and the Amotosalen concentration ([2]; 60 μM, Plasma, Pre-UV) was 62.0 µM. It also gave an Amotosalen concentration ([2]; 90 μM, PAS/Plasma, Post-UV) of 1.0 µM, an Amotosalen concentration ([2]; 90 μM, PAS/Plasma, Pre-UV) of 90.5 µM and an Amotosalen concentration ([2]; 90 μM, Plasma, Post-UV) of 4.0 µM. For the same molecule, the Amotosalen concentration ([2]; 90 μM, Plasma, Pre-UV) was 89.7 µM, the Amotosalen concentration ([2]; 110 μM, PAS/Plasma, Post-UV) was 1.2 µM and the Amotosalen concentration ([2]; 110 μM, PAS/Plasma, Pre-UV) was 120.7 µM. For the same molecule, the Amotosalen concentration ([2]; 110 μM, Plasma, Post-UV) was 5.5 µM and the Amotosalen concentration ([2]; 110 μM, Plasma, Pre-UV) was 105.8 µM.
